IC50 data for six molecules are collected here from patent US4828849A, “Surfactant inhibition of dental plaque” (Warner-Lambert Company, priority 1988, dated 1989).

For assay [1], the system named is Streptococcus sanguis G9B, S. mutans Ingbritt and Actinomyces viscosus T14 V. In words: Adherence assay: inhibition of initial adherence of bacteria to saliva-coated hydroxyapatite beads. The class given is cell-based. The conditions noted are these: 50% inhibition of bacterial adherence to saliva-coated hydroxyapatite (HA) beads, determined graphically; surfactant dissolved in water; 37° C.; read-out: 50% Inhibition Concentration. The text has this: S. sanguis G9B adheres well to saliva-coated hydroxyapatite. This attachment, in vivo, occurs within minutes. As plaque matures, the percentage of S. sanguis decreases, but its actual numbers remain high. In vivo and in vitro studies have shown S. sanguis to interact with other oral bacteria including S. mutans and Actinomyces viscosus. S. mutans has also been implicated as a cause of dental caries. Stock cultures were kept both lyophillized and frozen in Brain Heart Infusion Broth (BHI, Difco Laboratories) at -70° C.; the latter being used to inoculate starter cultures. After overnight incubation at 37° C, a 0.5% inoculum was used to inoculate 100 ml of BHI which was subsequently incubated 20 hours at 37° C. The cells were radioactivately labeled by adding tritiated thymidine (methyl-3H) to a final specific activity of 2 μCi/ml. After incubation, the cells were harvested by centrifugation (16,320× g, 15 minutes, 4° C.), washed three times with buffered KCl (2 mM potassium phosphate buffer, 1 mM CaCl2, and 5 mM KCl, pH 6.0) (Ref. 8), and resuspended to a turbidity of 300 Klett units (Klett-Summerson colorimeter; blue, #47 filter). This bacterial stock cell suspension was then diluted with buffered KCl to produce a series of cell suspensions ranging from 1.6 to 300 Klett units. Duplicate 50 ul aliquots of each cell suspension were counted in Aquasol-2 to determine their specific activities.
A. viscosus T14 V was grown for 48 hours at 37° C. under anaerobic conditions in tryptic soy broth (TSB) containing glucose.
Whole, paraffin-stimulated saliva was collected into ice-chilled tubes and clarified by centrifugation ([…], 15 minutes, 4° C.). The supernatant fluids were removed and aliquots were stored frozen at -20° C. until used. A pool of saliva from several individuals was used routinely; and was collected after a 10 hour fast with no food or oral hygiene on the morning of collection.
Spheroidal hydroxyapatite beads (manufactured by BDH Chemicals, Poole, England and obtained from Gallard-Schlessinger Co., Carle Place, NY) were distributed into a 12×75 mm polystyrene test tube (Walter Sarstedt, Inc., Princeton, N.J.) and mixed with either 1 ml of saliva or buffered KCl for 1.5 hours at ambient temperature with rotation (20 rpm). Each tube contained 40±2 mg of HA beads, distributed using a calibrated stainless steel ladle.
The cells were radioactively labelled by addition of 1.5 μCi/ml methyl-^3 H thymidine to the cell suspension media. The hydroxyapatite (HA) beads were coated with either a surfactant or a control or saliva and rotated for 30 minutes at ambient temperature. The excess agent or saliva was removed by washing with buffer. Radioactively-labelled cells suspended in either buffer or varying concentrations of the surfactant were added to the beads. The beads and cells were incubated at 37° C., 10 minutes for the streptococcal strains and 15 minutes for the actinomycete, after which the beads were washed to remove the unbound cells and the radioactivity bound to them was determined by scintillation counting. S. mutans Ingbritt was also assayed for sucrose-mediated adherence by addition of 1% sucrose to the cells and surfactant mixture. The concentration to effect 50% inhibition of bacterial adherence to the HA beads was determined graphically.
Several surfactant agents according to the invention dissolved in water were employed in the assay.

The target of assay [2] is glucosyl transferase. Description: Assay for the inhibition of glucosyl transferase activity (14C-sucrose incorporation into glucan). The assay is classed as biochemical. The conditions noted are these: 50% inhibition of glucosyl transferase activity; 0.05M sodium acetate buffer, pH 5.5, 37° C.; read-out: 50% Inhibition Concentration. The procedure: An assay for the inhibition of glucosyl transferase activity was developed wherein the enzyme was incubated for 10 minutes with varying concentrations of the surfactant in 0.05M sodium acetate buffer, pH 5.5 at 37° C., with agitation. The reaction was then started by adding the remainder of the assay mixture (to a final volume of 450 mcl) consisting of: 2.5 μCi uniformly-labelled 14C -sucrose, 1% unlabelled sucrose, sodium fluoride and Dextran T10 in acetate buffer. Samples were removed at timed intervals, spotted to filters and the filters were treated with methanol. Radioactivity incorporated into glucan was plotted versus time as compared to a control preparation. By this procedure the concentration of test reagent necessary to achieve 50% inhibition of glucosyl transferase activity was determined.

Where a name gives a salt, the structure may show the parent alone.

Take `CCCCCCCCCCCCCCCC(=O)N(C)CCS(=O)(=O)O` [Surfactant 1, N--methyl-N--palmitoyltaurine, sodium salt]: the IC50 came to 250 µM in assay [1] and 1000 µM in assay [2].
Taken in the same sequence, the figures for `CCCCCCCC/C=C\CCCCCCCC(=O)N(C)CCS(=O)(=O)O` [Surfactant 2, N--methyl-N--oleolytaurine sodium salt] were 350 µM and 1000 µM.
Take “Cocamidopropylhydroxysultaine, potassium salt [Surfactant 5]”: the IC50 in assay [1] was 25000 µM.
For “Cocoylisethionate, sodium salt [Surfactant 6]”, the IC50 in assay [1] came to 100 µM.
Still for that read-out and setting: with “Cocamidopropylhydroxysultaine [Surfactant 4]” the figure was 15000 µM.
As to “N--methyl-N--cocoyltaurine sodium salt [Surfactant 3]”, the values for the IC50 in assay [1] and in assay [2] were 300 µM and 1000 µM, respectively.
